Tested on: T1, OsPMI2 (GST-OsPMI2)
T1 construct: full CDS, N-terminal GST tag kept, E. coli Rosetta (DE3) pLysS; denatured from inclusion bodies and recovered
Experiment: PGI/G6PDH-coupled assay, NADP reduction at […] nm, Lineweaver-Burk
Type: biochemical, Oryza sativa subsp. japonica
Details: 50 mM Tris-HCl pH 7.5, 30 °C; M-6-P to F-6-P; enzyme recovered from denatured inclusion bodies

**Q.** Which Km does the source give for `O=P(O)(O)OC[C@H]1OC(O)[C@@H](O)[C@@H](O)[C@@H]1O` (stereo partly shown) [mannose-6-phosphate] here?
**A.** The Km was 6.462 ± 0.0479 mM.

From publication PMC4865823, “Plant phosphomannose isomerase as a selectable marker for rice transformation” (Scientific Reports, 2016)
